Test results: ChEMBL document CHEMBL1124361, “Tetrapeptide inhibitors of the IgA1 proteinases from type I Neisseria gonorrhoeae” (J Med Chem, 1989)
Peptide text beside a SMILES is read from it.

target: IgA-specific serine endopeptidase autotransporter (Neisseria gonorrhoeae, UniProt P09790); assay: Inhibitory concentration against type 1 IgA1 proteinases secreted by Neisseria gonorrhoeae
Sequence (P09790 whole entry): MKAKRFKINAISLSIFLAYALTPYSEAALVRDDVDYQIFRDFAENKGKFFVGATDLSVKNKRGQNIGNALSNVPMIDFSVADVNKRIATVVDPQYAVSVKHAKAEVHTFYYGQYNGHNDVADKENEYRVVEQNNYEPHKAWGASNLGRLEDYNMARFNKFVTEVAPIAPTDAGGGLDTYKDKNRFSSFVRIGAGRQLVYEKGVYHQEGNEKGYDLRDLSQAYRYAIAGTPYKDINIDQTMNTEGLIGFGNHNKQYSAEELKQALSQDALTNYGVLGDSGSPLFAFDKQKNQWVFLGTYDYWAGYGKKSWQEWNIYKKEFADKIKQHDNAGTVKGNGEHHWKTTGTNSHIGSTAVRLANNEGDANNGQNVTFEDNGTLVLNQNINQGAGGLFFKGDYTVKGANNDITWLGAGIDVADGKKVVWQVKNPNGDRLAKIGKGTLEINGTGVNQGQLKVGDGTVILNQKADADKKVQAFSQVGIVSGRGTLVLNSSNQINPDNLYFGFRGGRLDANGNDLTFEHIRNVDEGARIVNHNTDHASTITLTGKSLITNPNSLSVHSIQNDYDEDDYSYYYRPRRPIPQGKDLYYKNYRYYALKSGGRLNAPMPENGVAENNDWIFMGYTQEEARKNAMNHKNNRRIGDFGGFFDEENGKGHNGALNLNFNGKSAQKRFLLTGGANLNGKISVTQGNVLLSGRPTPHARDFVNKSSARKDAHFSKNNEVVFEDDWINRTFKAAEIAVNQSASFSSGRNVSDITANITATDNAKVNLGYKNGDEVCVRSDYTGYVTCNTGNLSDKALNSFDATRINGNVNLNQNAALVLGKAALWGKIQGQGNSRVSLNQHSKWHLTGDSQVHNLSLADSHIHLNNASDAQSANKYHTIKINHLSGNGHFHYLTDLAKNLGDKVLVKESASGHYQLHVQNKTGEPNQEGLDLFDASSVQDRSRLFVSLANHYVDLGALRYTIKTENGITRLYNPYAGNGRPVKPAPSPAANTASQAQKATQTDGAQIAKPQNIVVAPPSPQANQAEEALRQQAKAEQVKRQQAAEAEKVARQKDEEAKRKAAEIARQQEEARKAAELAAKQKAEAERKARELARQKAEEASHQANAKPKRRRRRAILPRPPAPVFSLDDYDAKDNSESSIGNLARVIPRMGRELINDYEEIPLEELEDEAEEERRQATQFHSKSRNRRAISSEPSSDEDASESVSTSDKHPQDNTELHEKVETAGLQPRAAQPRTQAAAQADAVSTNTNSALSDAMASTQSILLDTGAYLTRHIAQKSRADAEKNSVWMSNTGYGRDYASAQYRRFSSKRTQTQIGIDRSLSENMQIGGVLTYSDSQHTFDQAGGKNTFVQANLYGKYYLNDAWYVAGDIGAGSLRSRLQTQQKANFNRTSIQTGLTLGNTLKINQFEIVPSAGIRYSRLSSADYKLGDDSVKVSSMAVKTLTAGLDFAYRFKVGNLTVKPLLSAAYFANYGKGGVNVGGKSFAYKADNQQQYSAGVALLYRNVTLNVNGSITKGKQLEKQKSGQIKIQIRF

**Q.** Which IC50 does the source give for `CC(=O)N1CCC[C@H]1C(=O)N[C@H](C(=O)N1CCC[C@H]1C(=O)N[C@@H](CO)C(=O)O)[C@@H](C)O` (Ac-PTPS-OH) here?
**A.** Its IC50 is 23.8 µM.

**Q.** How did the IC50 turn out when `CC(=O)N[C@H](C(=O)N1CCC[C@H]1C(=O)N1CCC[C@H]1C(=O)N[C@H](C(=O)O)[C@@H](C)O)[C@@H](C)O` (Ac-TPPT-OH) was run?
**A.** The IC50 was over 1000 µM.

**Q.** `C[C@@H](O)[C@H](NC(=O)[C@@H](N)CO)C(=O)N1CCC[C@H]1C(=O)N1CCC[C@H]1C(N)=O` (H-STPP-NH2) was tested. Which IC50 did it give?
**A.** Its IC50 is over 1000 µM.

**Q.** Which IC50 does the source give for `CC(=O)N[C@H](C(=O)N1CCC[C@H]1C(=O)N1CCC[C@H]1C(=O)N[C@H](C(N)=O)[C@@H](C)O)[C@@H](C)O` (Ac-TPPT-NH2) here?
**A.** The IC50 was over 1000 µM.

**Q.** Which IC50 does the source give for `CC(=O)N1CCC[C@H]1C(=O)N1CCC[C@H]1C(=O)N[C@H](C(=O)N1CCC[C@H]1C(=O)O)[C@@H](C)O` (Ac-PPTP-OH) here?
**A.** Its IC50 is over 1000 µM.

**Q.** With `CC(=O)N1CCC[C@H]1C(=O)N[C@@H](CO)C(=O)N1CCC[C@H]1C(=O)N[C@@H](CO)C(=O)O` (Ac-PSPS-OH) as the compound, how does the IC50 read?
**A.** The IC50 was 675 µM.

**Q.** `C[C@@H](O)[C@H](N)C(=O)N1CCC[C@H]1C(=O)N[C@@H](CO)C(=O)N1CCC[C@H]1C(N)=O` [THREONYLPROLYLSERYLPROLINAMIDE(TPSPNH2)] (H-TPSP-NH2) was tested. Which IC50 did it give?
**A.** The IC50 was over 1000 µM.

**Q.** How did the IC50 turn out when `O=C(O)[C@H](CO)NC(=O)[C@@H]1CCCN1C(=O)[C@H](CO)NC(=O)[C@@H]1CCCN1` (H-PSPS-OH) was run?
**A.** The IC50 was over 1000 µM.

**Q.** `C[C@@H](O)[C@H](NC(=O)[C@@H]1CCCN1C(=O)[C@@H]1CCCN1)C(=O)N1CCC[C@H]1C(=O)O` (H-PPTP-OH) was tested. Which IC50 did it give?
**A.** Its IC50 is 40.5 µM.

**Q.** With `CC(=O)N1CCC[C@H]1C(=O)N[C@@H](CO)C(=O)N1CCC[C@H]1C(=O)N[C@@H](CO)C(N)=O` [ACETYLPROLYLSERYLPROLYLSERINAMIDE(ACPSPSNH2)] (Ac-PSPS-NH2) as the compound, how does the IC50 read?
**A.** The IC50 was over 1000 µM.

**Q.** Which IC50 does the source give for `C[C@@H](O)[C@H](NC(=O)[C@@H]1CCCN1)C(=O)N1CCC[C@H]1C(=O)N[C@@H](CO)C(=O)O` (H-PTPS-OH) here?
**A.** The IC50 was over 1000 µM.

**Q.** For `CC(=O)N1CCC[C@H]1C(=O)N[C@H](C(=O)N1CCC[C@H]1C(=O)N[C@@H](CO)C(N)=O)[C@@H](C)O` [ACETYLPROLYLTHREONYLPROLYLSERINAMIDE(ACPTPSNH2)] (Ac-PTPS-NH2), which IC50 is on record?
**A.** Its IC50 is over 1000 µM.

**Q.** How did the IC50 turn out when `C[C@@H](O)[C@H](N)C(=O)N1CCC[C@H]1C(=O)N[C@@H](CO)C(=O)N1CCC[C@H]1C(=O)O` (H-TPSP-OH) was run?
**A.** Its IC50 is 33.1 µM.

**Q.** For `CC(=O)N[C@H](C(=O)N1CCC[C@H]1C(=O)N[C@@H](CO)C(=O)N1CCC[C@H]1C(=O)O)[C@@H](C)O` (Ac-TPSP-OH), which IC50 is on record?
**A.** The IC50 was 183 µM.

**Q.** With `NC(=O)[C@H](CO)NC(=O)[C@@H]1CCCN1C(=O)[C@H](CO)NC(=O)[C@@H]1CCCN1` (H-PSPS-NH2) as the compound, how does the IC50 read?
**A.** Its IC50 is over 1000 µM.

**Q.** For `CC(=O)N1CCC[C@H]1C(=O)N1CCC[C@H]1C(=O)N[C@H](C(=O)N1CCC[C@H]1C(N)=O)[C@@H](C)O` [ACETYLPROLYLPROLYLTHREONYLPROLINAMIDE(ACPPTPNH2)] (Ac-PPTP-NH2), which IC50 is on record?
**A.** Its IC50 is over 1000 µM.

**Q.** For `C[C@@H](O)[C@H](NC(=O)[C@@H]1CCCN1C(=O)[C@@H]1CCCN1)C(=O)N1CCC[C@H]1C(N)=O` [PROLYLPROLYLTHREONYLPROLINAMIDE(PPTPNH2)] (H-PPTP-NH2), which IC50 is on record?
**A.** The IC50 was over 1000 µM.

**Q.** Which IC50 does the source give for `CC(=O)N[C@H](C(=O)N1CCC[C@H]1C(=O)N[C@@H](CO)C(=O)N1CCC[C@H]1C(N)=O)[C@@H](C)O` [ACETYLTHREONYLPROLYLSERYLPROLINAMIDE(ACTPSPNH2)] (Ac-TPSP-NH2) here?
**A.** Its IC50 is over 1000 µM.

**Q.** Which IC50 does the source give for `C[C@@H](O)[C@H](N)C(=O)N1CCC[C@H]1C(=O)N1CCC[C@H]1C(=O)N[C@H](C(N)=O)[C@@H](C)O` (H-TPPT-NH2) here?
**A.** The IC50 was 419 µM.

**Q.** How did the IC50 turn out when `C[C@@H](O)[C@H](N)C(=O)N1CCC[C@H]1C(=O)N1CCC[C@H]1C(=O)N[C@H](C(=O)O)[C@@H](C)O` (H-TPPT-OH) was run?
**A.** The IC50 was over 1000 µM.

**Q.** `C[C@@H](O)[C@H](NC(=O)[C@@H](N)CO)C(=O)N1CCC[C@H]1C(=O)N1CCC[C@H]1C(=O)O` (H-STPP-OH) was tested. Which IC50 did it give?
**A.** Its IC50 is 73 µM.

**Q.** Which IC50 does the source give for `CC(=O)N[C@@H](CO)C(=O)N[C@H](C(=O)N1CCC[C@H]1C(=O)N1CCC[C@H]1C(N)=O)[C@@H](C)O` (Ac-STPP-NH2) here?
**A.** Its IC50 is over 1000 µM.

**Q.** For `CC(=O)N[C@@H](CO)C(=O)N[C@H](C(=O)N1CCC[C@H]1C(=O)N1CCC[C@H]1C(=O)O)[C@@H](C)O` (Ac-STPP-OH), which IC50 is on record?
**A.** Its IC50 is 9.7 µM.

**Q.** `C[C@@H](O)[C@H](NC(=O)[C@@H]1CCCN1)C(=O)N1CCC[C@H]1C(=O)N[C@@H](CO)C(N)=O` (H-PTPS-NH2) was tested. Which IC50 did it give?
**A.** The IC50 was 5.3 µM.
